Data from patent US20070129320A9, “Methods and compositions for inducing innate immune responses” (Coley Pharmaceutical Group, Ltd., priority 2004, published 2007).

What was measured:
[1] = tested on: murine cancer models; conditions: cited from earlier work
[2] = tested on: Renca (renal carcinoma) cells; experiment: Renal cell carcinoma (Renca) tumor model in mice: survival and tumor growth; conditions: co-administration of immune stimulating complex (ISCOMATRIX adjuvant) with ODN 7909, compared with either agent alone
Protocol: • Mice: All experiments were carried out using female BALB/c mice aged 6-8 weeks with 10 mice per experimental or control group. • Oligonucleotides: All oligonucleotides were obtained from Coley Pharmaceutical GmbH, Langenfeld, Germany. • Immune stimulating complexes: ISCOMATRIX® adjuvant, herein referred to as IMX, was the immune stimulating complex used in these Examples.
Female BALB/c mice (n=10 per group) were injected with 2×10^5 Renca (renal carcinoma) cells by SC injection into the left flank. Animals were treated with CpG 7909 alone, ISCOMATRIX® (IMX) alone or a combination of CpG 7909 and INIX administered by SC injection into the tumor perimeter weekly from day 10-28 post tumor cell injection. Control animals were injected with 100 μl of phosphate buffered saline (PBS) weekly from day 10-38 post tumor cell injection. Animals were monitored for survival (FIG. 1, panel A) and tumor growth (FIG. 1, panel B). Tumor size (length and width) was measured using a digital vernier calliper. Tumor volume was calculated by using the formula: Tumor volume=(0.4) (ab2), where a=large diameter and b=smaller diameter. In the tumor volume graph (FIG. 1, panel B), changes in average tumor volume are indicated until 50% death in each animal group.

TCGTCGTTTTGTCGTTTTGTCGTT [CpG 7909]
anti-tumor effects ([1]; several murine cancer models, demonstrated previously): demonstrated previously
effect on anti-tumor effects of chemotherapeutic drugs ([1]; shown previously): augment the anti-tumor effects of some chemotherapeutic drugs
survival [2]: increased survival
tumor growth [2]: controlled tumor growth better than did either agent alone
